Earlier results as cited in patent publication US20250222007A1, “PREPARATION OF LOW MOLECULAR WEIGHT POLYLACTIC ACID AND THE USE THEREOF” (AL Andalous for Pharmaceutical Industries, priority 2023, published 2025).

What was measured:
[1] = tested on: rabbit eye; conditions: 0.2 ml/day of 100% DMSO (4 drops/day) for 6 months
[2] = tested on: blind human eyes; conditions: 66% DMSO (with Tetryzoline) topically 4-8 times a day
[3] = tested on: lower conjunctival sac; conditions: 50 microliters instilled directly in the lower conjunctival sac
[4] = dissolved in 0.1% DMSO, 20.5, 5, 10, 30, 40 micrograms

| SMILES | adverse effect in the eye [1] | cases with a burning sensation [2] | sensitivity to DMSO, epithelial damage, increase of IOP or keratitis [2] | eye irritation or conjunctival or corneal injury [3] | toxicity after intravitreal injection [4] |
| --- | --- | --- | --- | --- | --- |
| C[S+](C)[O-] [DMSO, dimethyl sulfoxide] | without any evidence of an adverse effect | only one case | None of any blind eyes evinced any evidence | without any signs of eye irritation or conjunctival or corneal injury | – |
| Clc1ccc(COC(Cn2ccnc2)c2ccc(Cl)cc2Cl)c(Cl)c1 (centres unmarked) [miconazole] | – | – | – | – | No toxicity was observed |
